Laboratory results reported in patent US9233954B2, “Organic amine salts of Azilsartan, preparation method and use thereof” (Jiangsu Hansoh Pharmaceutical Co., Ltd., priority 2011, dated 2016).
Where a name gives a salt, the structure may show the parent alone. Read-outs that look alike come from different tables or passages of the source.

Legend:
Hygroscopicity test = type: physicochemical; conditions: 25° C.±1° C., RH 80%±2%, 24 h
Description: 1. A dried glass weighing bottle (Outer diameter […]) with a plug was put into an artificial climate box under the temperature of 25° C.±1° C. and relative humidity (RH) of 80%±2% the day before and then weighed precisely (m1).
2. The testing sample was weighed precisely (m2) and lain into the weighing bottle. The thickness of the test sample was about 1 mm.
3. The uncovered weighing bottle and its plug were placed under the above constant temperature and humidity conditions for 24 h.
4. The weighing bottle was covered and weighed precisely (m3).
Calculation formula: Percent of weight increase=(m3−m2)/(m2−m1)*100%
5. Definition of the weight increase of the hygroscopicity
Deliquescence: absorbing enough water to form liquid.
High hygroscopicity: the weight increase of the hygroscopicity is no less than 15%
Having hygroscopicity: the weight increase of the hygroscopicity is between 15% and 2%
Slight hygroscopicity: the weight increase of the hygroscopicity is between 2% and 0.2%
No or almost no hygroscopicity: the weight increase of the hygroscopicity is less than 0.2%

Beagle dog = type: in vivo; conditions: for Clinical observations: Beagle dog, intragastric
Description: Acute Toxicity Test Research for Beagle Dog
Object: Approximate lethal dose method was introduced in the test to observe the acute toxicity response of the animals by intragastric administration of example 2 or Azilsartan medoxomil potassium salt to Beagle dogs to study the toxicity situation of example 2 after administration and compare the toxicity of example 2 and Azilsartan medoxomil potassium salt, which can provide reference confirmation for the evaluation of toxicity of example 2.
Method (approximate lethal dose method): 6 Beagle dogs were used, 3 for each of example 2 group and Azilsartan medoxomil potassium salt group. The administration dosage was 0.09, 0.13, 0.19, 0.28, 0.42, 0.63, 0.95, 1.42, 2.13, 3.20 g·kg^−1 respectively, wherein 3.20 g·kg^−1 was the maximum administration dosage (corresponding to 1081 times the given dosage for the clinical patient). The blood was collected before administration and on days 2, 7, and 14 after administration to test the corresponding biochemical indicators. Electrocardiogram, body weight, and body temperature were determined before administration and on days 7 and 14 after administration.

Solubility test = conditions: conclusion of the solubility test
Description: Moreover, “1:40” refers to 1 g of sample was dissolved in 40 ml of methanol at room temperature, the same as “1:80”; “1:120” refers to 1 g of sample was dissolved in 40 ml of ethanol at room temperature, the same as “1:200”.

[1] = system: blood pressure of SHR rats; assay: Antihypertensive effect test for spontaneously hypertensive (SHR) rats; type: in vivo; conditions: 10 mg/kg
Description: Antihypertensive Effect Test For Spontaneously Hypertensive (SHR) Rats
38 of 25 week old SHR male rats were randomly divided into 4 groups according to the initial blood pressure, with 6 for the control group (solvent) and 8 for other groups. 10 mg/kg of example 2 compound (Choline Azilsartan), example 4 compound (Azilsartan ethanolamine salts) and control (Azilsartan medoxomil potassium salt) were continuously administered, respectively. The solvent control group was administered solvent. The administration volume was 5 ml/kg and the period was 2 weeks.

With `CCOc1nc2cccc(C(=O)O)c2n1Cc1ccc(-c2ccccc2-c2noc(=O)[nH]2)cc1.NCCO` [Example 3] the “Conclusion (hygroscopic or not)” value (Hygroscopicity test) was “Yes” and the “Hygroscopicity (percent of weight increase)” value (Hygroscopicity test) was 5.66%.
For `CCOc1nc2cccc(C(=O)OCc3oc(=O)oc3C)c2n1Cc1ccc(-c2ccccc2-c2noc(=O)[nH]2)cc1` [Azilsartan kamedoxomil, Azilsartan medoxomil potassium salt, reference compound], the Clinical observations (Beagle dog; 1.42 g·kg^−1 dosage group) was “vomit, less moving; moving reduction on day 2 after administration, moving recovered on day 3 and no abnormality observed after day 3”, the Clinical observations (Beagle dog; 2.13 g·kg^−1 dosage group) was “vomit, drooling, moving reduction; moving reduction on day 2 after administration, moving recovered on day 3 and no abnormality observed after day 3” and the Clinical observations (Beagle dog; 3.20 g·kg^−1 dosage group) was “vomit, drooling, less moving; moving reduction on days 2˜8, prostration on days 5˜8, died on day 9”. For the same molecule, the Body temperature (Beagle dog; dog, in vivo) was “no abnormality on day 7 after administration”, the Body weight (Beagle dog; dog, in vivo) was “decreased on day 7 after administration compared with pre-administration” and the “Electrocardiogram and haematological indicators” value (Beagle dog; dog, in vivo) was “not abnormal on day 7 after administration”. The PT values (Beagle dog; dog, in vivo) was “reduced significantly after administration compared to pre-administration” and the “Systolic blood pressure and diastolic blood pressure” value (Beagle dog; dog, in vivo) was “reduced more or less on day 2 after administration”.
For `CCOc1nc2cccc(C(=O)[O-])c2n1Cc1ccc(-c2ccccc2-c2noc(=O)[nH]2)cc1.C[N+](C)(C)CCO` [Example 1], the “Solubility, comparison between samples” value (Solubility test) was “comparable to the solubility of example 2 compound”, the “Conclusion (hygroscopic or not)” value (Hygroscopicity test) was “Yes” and the “Hygroscopicity (percent of weight increase)” value (Hygroscopicity test) was 10.51%.
With `CCOc1nc2cccc(C(=O)O)c2n1Cc1ccc(-c2ccccc2-c2noc(=O)[nH]2)cc1.CCOc1nc2cccc(C(=O)O)c2n1Cc1ccc(-c2ccccc2-c2noc(=O)[nH]2)cc1.NCCO` [Example 4] the “Antihypertensive effect compared with control (Azilsartan medoxomil potassium salt)” value ([1]; SHR rats, 2 weeks) was “superior to the antihypertensive effect of control”, the “Antihypertensive effect, ranking under the same dosage” value ([1]; SHR rats, 2 weeks) was “less effective” and the “Effect on blood pressure of SHR rats compared with solvent control” value ([1]; continuously administered for one or two weeks, FIG. 4) was “reduce the blood pressure of SHR rats significantly”. For the same molecule, the “Hygroscopicity (percent of weight increase)” value (Hygroscopicity test) was 0.08%, the “Conclusion (hygroscopic or not)” value (Hygroscopicity test; listed as Example 4 Compound) was “No” and the “Conclusion (hygroscopic or not)” value (Hygroscopicity test; listed as example 4 compound) was “not hygroscopic”.
